This passage reports tumor suppression effect, colony formation inhibition and inhibition results from patent US20220218715A1, “NOVEL USE OF PYRROLO-PYRIDINE DERIVATIVE COMPOUND FOR PREVENTION AND/OR TREATMENT OF CANCER” (VORONOI CO., LTD., priority 2019, published 2022).

In one test the test system is 3LL lung cancer. Kind of test: Anticancer effect in 3LL lung cancer transplant mouse model. The test is classed as in vivo, female C57BL/6 mouse. On the procedure:
(§1) The 3LL cells were cultured in Hams F10:L15=3:7 culture medium, the EMT-6 cells were cultured in Waymouth's MB 752/1 culture medium, and the MC38 cells were cultured in a DMEM culture medium with 10% FBS and 1% penicillin streptomycin, at 37° C. in a 5% CO2 humidified cell culture incubator.
(§2) The mouse PD-1 antibody (BE-0146), PD-L1 antibody (BE-0101), and CTLA-4 antibody (BE-0131) were purchased from BioXcell.
(§3) All animal tests were carried out through WuXi AppTec.

For the next test, the system named is H1975 cell line. Briefly: Lung cancer cell colony formation inhibition. The test is classed as cell-based. The following applies: concomitant treatment with Gefitinib or Osimertinib, vs single treatment or Harmine, from 10 days, FIG. 1. The source says: Specifically, the H1975 cell line was purchased from the ATCC (American Type Culture Collection, and RPMI-1640 with 10% FBS and 1% penicillin streptomycin was used.
The remaining colony-forming cells were fixed with methanol (1%) and formaldehyde (1%), then dyed with 0.5% crystal violet before photographing each well.

For another test, the target named is T1, CSNK1A1 (Homo sapiens, UniProt P48729).
T1 construct: purchased DiscoverX
T1 sequence (P48729 whole entry): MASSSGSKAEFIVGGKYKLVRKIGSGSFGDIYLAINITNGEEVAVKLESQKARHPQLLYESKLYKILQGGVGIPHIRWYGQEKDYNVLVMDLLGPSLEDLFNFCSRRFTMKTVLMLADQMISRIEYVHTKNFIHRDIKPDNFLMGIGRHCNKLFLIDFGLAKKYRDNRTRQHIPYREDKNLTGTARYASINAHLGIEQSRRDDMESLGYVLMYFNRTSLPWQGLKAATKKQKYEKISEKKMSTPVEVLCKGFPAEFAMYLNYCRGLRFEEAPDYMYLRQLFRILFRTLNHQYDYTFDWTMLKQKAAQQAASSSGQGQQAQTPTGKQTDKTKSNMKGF
Kind of test: scanMAX Kinase analysis panel (DiscoverX). As to conditions: 1 μM in DMSO. The test is classed as binding. From the text:
(§4) [(Example Compound−Positive Control)/(Negative Control−Positive Control)×100]

The next test addresses T2, JNK2 (Homo sapiens, UniProt P45984).
T2 construct: purchased DiscoverX scanMAX Kinase analysis panel
Briefly: scanMAX Kinase analysis panel (DiscoverX). It is filed as binding. As to conditions: 1 μM in DMSO.
Source text: as §4

A further test addresses T3, PLK4 (Homo sapiens, UniProt O00444).
T3 construct: purchased DiscoverX scanMAX Kinase analysis panel
Kind of test: scanMAX Kinase analysis panel (DiscoverX). It is filed as binding. The following applies: 1 μM in DMSO.
Source text: as §4

The target of another test is T4, GAK (Homo sapiens, UniProt O14976).
T4 construct: purchased DiscoverX
Kind of test: scanMAX Kinase analysis panel (DiscoverX). The following applies: 1 μM in DMSO. It is filed as binding.
Source text: as §4

In another test the target is T5, HUNK (Homo sapiens, UniProt P57058).
T5 construct: purchased DiscoverX scanMAX Kinase analysis panel
Kind of test: scanMAX Kinase analysis panel (DiscoverX). It is filed as binding. The following applies: 1 μM in DMSO.
Source text: as §4

The next test addresses T6, cSNK1D (Homo sapiens, UniProt P48730).
T6 construct: purchased DiscoverX
Briefly: scanMAX Kinase analysis panel (DiscoverX). It is filed as binding.
Source text: as §4

The target in another test is T7, LTK (Homo sapiens, UniProt P29376).
T7 construct: purchased DiscoverX
Briefly: scanMAX Kinase analysis panel (DiscoverX). It is filed as binding. The following applies: 1 μM in DMSO.
Source text: as §4

The next test deals with T8, CHEK2 (Homo sapiens, UniProt O96017).
T8 construct: purchased DiscoverX
Kind of test: scanMAX Kinase analysis panel (DiscoverX). It is filed as binding. The following applies: 1 μM in DMSO.
Source text: as §4

The target in the next test is T9, MYLK (Homo sapiens, UniProt Q15746).
T9 construct: purchased DiscoverX
Briefly: scanMAX Kinase analysis panel (DiscoverX). The following applies: 1 μM in DMSO. The test is classed as binding.
Source text: as §4

The next test has as its target T10, PHKG2 (Homo sapiens, UniProt P15735).
T10 construct: purchased DiscoverX
Kind of test: scanMAX Kinase analysis panel (DiscoverX). The test is classed as binding. The following applies: 1 μM in DMSO.
Source text: as §4

The target in a further test is T11, ALK(C1156Y) (Homo sapiens, UniProt Q9UM73, C1156Y).
T11 construct: purchased DiscoverX
T11 sequence (Q9UM73 19-1620 C1156Y): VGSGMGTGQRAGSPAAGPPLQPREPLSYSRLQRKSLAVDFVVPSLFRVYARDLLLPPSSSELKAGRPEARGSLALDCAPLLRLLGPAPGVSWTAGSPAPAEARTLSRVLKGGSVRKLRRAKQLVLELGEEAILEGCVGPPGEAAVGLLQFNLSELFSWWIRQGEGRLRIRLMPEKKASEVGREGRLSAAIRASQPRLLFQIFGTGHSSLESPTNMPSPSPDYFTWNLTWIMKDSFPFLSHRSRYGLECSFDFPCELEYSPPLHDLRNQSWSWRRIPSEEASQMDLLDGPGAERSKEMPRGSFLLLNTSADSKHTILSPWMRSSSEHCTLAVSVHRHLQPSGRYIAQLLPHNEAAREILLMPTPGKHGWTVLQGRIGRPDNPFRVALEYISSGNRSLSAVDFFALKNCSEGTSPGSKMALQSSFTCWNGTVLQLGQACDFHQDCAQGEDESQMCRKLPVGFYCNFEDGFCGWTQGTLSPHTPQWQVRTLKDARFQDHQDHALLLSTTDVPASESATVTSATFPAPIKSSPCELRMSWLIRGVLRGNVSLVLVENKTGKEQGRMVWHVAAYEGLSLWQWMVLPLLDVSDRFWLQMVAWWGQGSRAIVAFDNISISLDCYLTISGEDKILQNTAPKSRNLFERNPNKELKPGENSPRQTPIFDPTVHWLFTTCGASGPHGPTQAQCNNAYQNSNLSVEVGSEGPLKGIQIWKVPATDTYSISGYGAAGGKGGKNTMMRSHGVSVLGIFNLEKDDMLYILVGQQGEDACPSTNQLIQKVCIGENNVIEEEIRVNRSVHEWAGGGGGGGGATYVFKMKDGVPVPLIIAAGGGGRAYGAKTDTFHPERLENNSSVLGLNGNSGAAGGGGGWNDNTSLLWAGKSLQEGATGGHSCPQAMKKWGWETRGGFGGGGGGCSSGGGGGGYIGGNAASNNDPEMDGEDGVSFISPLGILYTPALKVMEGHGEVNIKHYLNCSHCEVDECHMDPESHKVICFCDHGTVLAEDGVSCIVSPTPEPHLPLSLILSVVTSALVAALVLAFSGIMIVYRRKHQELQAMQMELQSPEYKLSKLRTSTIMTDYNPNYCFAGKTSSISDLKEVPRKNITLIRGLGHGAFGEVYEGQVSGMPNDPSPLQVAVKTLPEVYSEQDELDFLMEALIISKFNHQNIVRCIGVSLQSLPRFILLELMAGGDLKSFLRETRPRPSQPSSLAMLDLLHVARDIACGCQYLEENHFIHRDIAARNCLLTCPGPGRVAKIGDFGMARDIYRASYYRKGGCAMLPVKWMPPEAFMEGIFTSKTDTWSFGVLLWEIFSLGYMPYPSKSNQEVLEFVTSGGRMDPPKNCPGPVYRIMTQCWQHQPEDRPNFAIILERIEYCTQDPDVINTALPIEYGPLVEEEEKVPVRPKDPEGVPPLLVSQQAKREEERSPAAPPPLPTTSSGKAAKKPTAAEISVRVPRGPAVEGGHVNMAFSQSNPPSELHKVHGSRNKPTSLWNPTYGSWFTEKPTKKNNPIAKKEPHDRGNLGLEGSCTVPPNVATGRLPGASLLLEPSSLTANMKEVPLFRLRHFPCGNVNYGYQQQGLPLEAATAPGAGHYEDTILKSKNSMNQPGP
Kind of test: scanMAX Kinase analysis panel (DiscoverX). The test is classed as binding. The following applies: 1 μM in DMSO.
Source text: as §4

The target in the next test is T12, INSR (Homo sapiens, UniProt P06213).
T12 construct: purchased DiscoverX scanMAX Kinase analysis panel
T12 sequence (P06213 28-1382): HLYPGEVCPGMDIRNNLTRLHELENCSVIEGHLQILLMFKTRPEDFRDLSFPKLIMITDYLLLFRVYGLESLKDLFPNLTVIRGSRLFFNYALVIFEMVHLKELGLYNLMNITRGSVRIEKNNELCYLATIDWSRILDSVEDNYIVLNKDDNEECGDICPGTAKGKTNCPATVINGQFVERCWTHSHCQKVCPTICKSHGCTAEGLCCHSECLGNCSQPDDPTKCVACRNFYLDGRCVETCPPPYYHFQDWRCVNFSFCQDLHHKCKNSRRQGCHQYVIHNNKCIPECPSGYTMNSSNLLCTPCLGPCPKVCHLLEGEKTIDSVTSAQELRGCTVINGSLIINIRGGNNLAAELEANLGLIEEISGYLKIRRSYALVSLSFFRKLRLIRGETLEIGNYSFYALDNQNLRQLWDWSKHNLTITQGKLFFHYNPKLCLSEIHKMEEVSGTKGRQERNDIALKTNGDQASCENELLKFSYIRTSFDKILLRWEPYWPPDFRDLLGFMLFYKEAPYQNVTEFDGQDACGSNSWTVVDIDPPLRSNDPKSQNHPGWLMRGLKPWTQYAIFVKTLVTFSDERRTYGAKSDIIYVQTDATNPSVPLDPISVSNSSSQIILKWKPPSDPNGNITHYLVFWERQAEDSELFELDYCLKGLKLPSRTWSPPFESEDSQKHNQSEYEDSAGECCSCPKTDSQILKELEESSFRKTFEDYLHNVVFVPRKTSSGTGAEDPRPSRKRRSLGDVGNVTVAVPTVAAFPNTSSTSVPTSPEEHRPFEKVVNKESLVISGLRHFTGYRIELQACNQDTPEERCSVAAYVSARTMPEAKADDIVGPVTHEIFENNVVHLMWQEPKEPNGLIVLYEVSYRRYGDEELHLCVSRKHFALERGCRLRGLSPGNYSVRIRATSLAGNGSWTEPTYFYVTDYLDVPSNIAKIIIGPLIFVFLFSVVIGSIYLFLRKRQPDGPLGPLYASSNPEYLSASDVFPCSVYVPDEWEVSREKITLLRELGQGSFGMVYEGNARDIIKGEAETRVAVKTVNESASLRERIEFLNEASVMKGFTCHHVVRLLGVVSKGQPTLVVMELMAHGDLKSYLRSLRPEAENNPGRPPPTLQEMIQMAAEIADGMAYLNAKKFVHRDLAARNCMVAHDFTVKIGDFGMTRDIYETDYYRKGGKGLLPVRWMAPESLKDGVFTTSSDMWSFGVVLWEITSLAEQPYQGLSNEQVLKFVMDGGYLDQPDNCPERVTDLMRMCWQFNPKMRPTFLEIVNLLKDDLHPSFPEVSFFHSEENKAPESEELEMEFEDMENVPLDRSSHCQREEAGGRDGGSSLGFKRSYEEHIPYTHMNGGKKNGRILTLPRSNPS
Briefly: scanMAX Kinase analysis panel (DiscoverX). The test is classed as binding. As to conditions: 1 μM in DMSO.
Source text: as §4

Another test has as its target T13, ERK5 (Homo sapiens, UniProt Q13164).
T13 construct: purchased DiscoverX scanMAX Kinase analysis panel
Kind of test: scanMAX Kinase analysis panel (DiscoverX). It is filed as binding. The following applies: 1 μM in DMSO.
Source text: as §4

Another test has as its target T14, CAMK2D (Homo sapiens, UniProt Q13557).
T14 construct: purchased DiscoverX
Kind of test: scanMAX Kinase analysis panel (DiscoverX). The test is classed as binding. As to conditions: 1 μM in DMSO.
Source text: as §4

Another test has as its target T15, LRRK2 (Homo sapiens, UniProt Q5S007).
T15 construct: purchased DiscoverX scanMAX Kinase analysis panel
Kind of test: scanMAX Kinase analysis panel (DiscoverX). As to conditions: 1 μM in DMSO. The test is classed as binding.
Source text: as §4

The target in the next test is T16, CAMKK2 (Homo sapiens, UniProt Q96RR4).
T16 construct: purchased DiscoverX
T16 sequence (Q96RR4 whole entry): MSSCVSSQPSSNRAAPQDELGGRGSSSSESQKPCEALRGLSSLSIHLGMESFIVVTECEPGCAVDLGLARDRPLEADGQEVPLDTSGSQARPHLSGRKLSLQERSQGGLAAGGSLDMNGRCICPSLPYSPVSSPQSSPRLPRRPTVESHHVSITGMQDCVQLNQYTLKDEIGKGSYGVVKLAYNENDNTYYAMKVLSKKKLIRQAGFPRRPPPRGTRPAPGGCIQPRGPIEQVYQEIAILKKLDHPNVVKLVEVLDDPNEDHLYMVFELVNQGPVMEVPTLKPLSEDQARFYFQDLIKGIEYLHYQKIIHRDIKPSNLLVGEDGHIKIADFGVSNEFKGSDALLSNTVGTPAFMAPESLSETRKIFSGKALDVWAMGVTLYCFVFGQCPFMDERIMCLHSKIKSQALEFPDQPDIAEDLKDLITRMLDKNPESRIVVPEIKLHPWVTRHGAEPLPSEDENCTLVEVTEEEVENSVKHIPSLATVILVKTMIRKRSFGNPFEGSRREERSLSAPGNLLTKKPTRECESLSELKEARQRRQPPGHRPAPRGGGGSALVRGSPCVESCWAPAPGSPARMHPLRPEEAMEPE
Briefly: scanMAX Kinase analysis panel (DiscoverX). The test is classed as binding. The following applies: 1 μM in DMSO.
Source text: as §4

The target in another test is T17, STK33 (Homo sapiens, UniProt Q9BYT3).
T17 construct: purchased DiscoverX
Kind of test: scanMAX Kinase analysis panel (DiscoverX). The test is classed as binding. As to conditions: 1 μM in DMSO.
Source text: as §4

The target in another test is T18, JNK3 (Homo sapiens, UniProt P53779).
T18 construct: purchased DiscoverX scanMAX Kinase analysis panel
T18 sequence (P53779 whole entry): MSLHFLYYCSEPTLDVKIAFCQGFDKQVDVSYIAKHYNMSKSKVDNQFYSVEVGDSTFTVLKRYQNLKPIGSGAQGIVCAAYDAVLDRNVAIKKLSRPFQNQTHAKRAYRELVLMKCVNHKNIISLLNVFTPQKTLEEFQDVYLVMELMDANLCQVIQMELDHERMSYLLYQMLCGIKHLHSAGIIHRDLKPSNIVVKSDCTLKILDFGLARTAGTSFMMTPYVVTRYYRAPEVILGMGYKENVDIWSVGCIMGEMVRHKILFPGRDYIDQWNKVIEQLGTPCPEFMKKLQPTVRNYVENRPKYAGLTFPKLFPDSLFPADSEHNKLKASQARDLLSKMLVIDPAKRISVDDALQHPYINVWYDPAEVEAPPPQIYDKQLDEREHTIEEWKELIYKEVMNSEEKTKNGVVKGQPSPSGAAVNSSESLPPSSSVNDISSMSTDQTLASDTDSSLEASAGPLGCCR
Briefly: scanMAX Kinase analysis panel (DiscoverX). It is filed as binding. As to conditions: 1 μM in DMSO.
Source text: as §4

The target of test [1] is T19, JAK1 (JH2domain-psudokinase) (Homo sapiens, UniProt P23458).
T19 construct: JAK1 (JH2domain-pseudokinase); purchased DiscoverX scanMAX Kinase analysis panel
T19 sequence (P23458 583-855 limits assumed): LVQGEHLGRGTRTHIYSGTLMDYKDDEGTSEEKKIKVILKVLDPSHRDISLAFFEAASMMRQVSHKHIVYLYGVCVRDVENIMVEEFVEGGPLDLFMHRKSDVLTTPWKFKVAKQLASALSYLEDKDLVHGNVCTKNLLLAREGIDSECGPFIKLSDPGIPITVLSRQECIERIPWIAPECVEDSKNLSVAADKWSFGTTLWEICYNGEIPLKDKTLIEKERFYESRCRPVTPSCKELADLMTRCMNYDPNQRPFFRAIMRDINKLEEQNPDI
Kind of test: scanMAX Kinase analysis panel (DiscoverX). It is filed as binding. The following applies: 1 μM in DMSO.
Source text: as §4

The next test deals with MC38 colon cancer. Kind of test: Anticancer effect in MC38 colon cancer transplant mouse model. The test is classed as in vivo, female C57BL/6 mouse. On the procedure:
as §1, §2, §3

Setting [2] is: singular treatment, 45, 60, 75 mg/kg po BID, FIG. 6a.

T6 sequence (P48730 whole entry): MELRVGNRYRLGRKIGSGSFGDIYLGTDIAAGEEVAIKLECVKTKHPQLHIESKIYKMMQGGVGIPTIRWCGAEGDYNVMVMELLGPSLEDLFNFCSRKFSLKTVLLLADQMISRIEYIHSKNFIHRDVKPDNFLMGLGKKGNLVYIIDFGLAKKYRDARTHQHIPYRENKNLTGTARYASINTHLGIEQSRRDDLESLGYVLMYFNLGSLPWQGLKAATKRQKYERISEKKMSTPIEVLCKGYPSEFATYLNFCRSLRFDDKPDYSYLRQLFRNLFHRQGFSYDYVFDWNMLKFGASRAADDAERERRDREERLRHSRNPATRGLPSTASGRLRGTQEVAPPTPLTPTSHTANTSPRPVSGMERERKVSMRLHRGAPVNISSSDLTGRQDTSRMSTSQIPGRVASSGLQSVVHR

Turning to `CCNc1cc(Nc2ccc(C(=O)N3CCC(N4CCOCC4)CC3)cc2OC)nc2[nH]cc(C(F)(F)F)c12` [Compound 1, (4-((4-(ethylamino)-3-(trifluoromethyl)-1H-pyrrolo[2,3-b]pyridine-6-yl)amino)-3-methoxyphenyl) (4-morpholinopiperidine-1-yl)methanone], the tumor suppression effect entry with 3LL lung cancer (concomitant with PD-1, PD-L1 and CTLA-4 antibodies 10 mg/kg IP BIW, FIG. 6b) was “improved concomitant effect”; in the test on 3LL lung cancer (setting [2]), “insignificant tumor suppression effect”; in the test on MC38 colon cancer (concomitant with PD-1, PD-L1 and CTLA-4 antibodies 10 mg/kg IP BIW, FIG. 6c), “improved concomitant effect”; with MC38 colon cancer (setting [2]) it was “insignificant tumor suppression effect”. Besides, the colony formation inhibition result in the test on H1975 cell line is recorded as “substantially inhibit formation of lung cancer cell colonies”. In addition, the inhibition at 1 µM at CSNK1A1 was 40 to 59%; at JNK2, 40 to 59%; against PLK4, 40 to 59%; against GAK, no less than 59%; on HUNK, 40 to 59%; against cSNK1D it was no less than 59%. The inhibition at 1 µM against LTK was no less than 59%; at CHEK2, 40 to 59%; at MYLK it was no less than 59%; at PHKG2 it was no less than 59%; against ALK(C1156Y), no less than 59%; against INSR, 40 to 59%. For the same molecule, the inhibition at 1 µM was 40 to 59% at ERK5; 40 to 59% at CAMK2D; 40 to 59% against LRRK2; 40 to 59% at CAMKK2; no less than 59% on STK33; 40 to 59% against JNK3. Moreover, the inhibition at 1 µM in test [1] is 40 to 59%.

Usually inhibition stands for how much of the control response was suppressed. Low values mean a response near the control, high ones a response far below the control.
